Structures can show the parent of a compound that is named as a salt.

Data on seven compounds can be found in patent publication US5475000A, “3-(substituted tetrazolyl)-4-oxo-4H-pyrido-[1,2-a]pyrimidines, salts thereof, pharmaceutical compositions containing them and process for preparing same” (Chinoin Gyogyszer-es Vegyeszeti Termekek Gyara Rt., priority 1991, dated 1995).

Test [1] concerns gastric mucosa lesion induced by 96% ethanol containing hydrochloric acid. As to the kind of experiment: Protective action against the gastric mucosa lesion induced by 96% ethanol containing hydrochloric acid (acid-ethanol gastric ulcer), p.o. In kind it is in vivo. Conditions: Rattus norvegicus, po, rats, 0.5 ml of 1:0.02 mixture of 96% ethanol and hydrochloric acid, read-out: ID50 p.o. mg/kg, gastric mucosa lesion induced by 96% ethanol containing hydrochloric acid. Here is the method:
As an example, the protective action of the compounds according to the invention against gastric ulcer induced by 0.5 ml of a 1:0.02 volume ratio mixture of 96% ethanol and hydrochloric acid is illustrated in Table 1. [for the method, see: Gastroenterology 77, 433 (1979)]
Protective action in rats of the compounds according to the
invention against the gastric mucosa lesion induced by 96%
ethanol containing hydrochloric acid

For test [2], the system named is indomethacin-induced gastric mucosa lesion. As to the kind of experiment: Inhibition of the indomethacin-induced gastric mucosa lesion, p.o. In kind it is in vivo. The note with it: Rattus norvegicus, po, rats, read-out: ID50 p.o. mg/kg, indomethacin-induced gastric mucosa lesion. From the text:
The effect of the compounds to the invention, given as examples, against the indomethacin-induced ulcer [Arch. Int.
Inhibition of the indomethacin-induced gastric mucosa

The test system of test [3] is indomethacin-induced duodenal ulcer. As to the kind of experiment: Indomethacin-induced duodenal/small intestine ulcer formation (method of Tsuromi), with lethality caused by indomethacin. In kind it is in vivo, rat. Conditions: 50 mg/kg on 4 consecutive days, 15 mg/kg oral indomethacin on 2nd day, vs control. Here is the method:
According to the method of Tsuromi (J. Pharm. Dyn. 1980, 3, 659) the compound was administered to the rats in a dose of 50 mg/kg on 4 consecutive days. On the 2nd day a 15 mg/kg oral dose of indomethacin was given to the rats. The ulcer formation was determined in the small intestine on the 3rd day following the administration of the indomethacin. In comparison to the control, the compound according to the invention exerted an inhibition of 20% on the ulcer formation and also an inhibition of 100% on the lethality caused by indomethacin.

In test [4] the test system is gastrointestinal ulceration induced by indomethacin. As to the kind of experiment: Gastrointestinal ulceration induced by indomethacin (known compound). In kind it is in vivo.

Regarding `Cc1cccn2c(=O)c(-c3nnnn3C(C)C)cnc12` [3-(1-isopropyl-1H-tetrazol-5-yl)-9-methyl-4-oxo-4H-pyrido[1,2-a]pyrimidine], in test [1], the ED50 is 0.34 mg/kg.
With `C=CCn1nnc(-c2cnc3c(C)cccn3c2=O)n1` [3-(2-allyl-2H-tetrazol-5-yl)-9-methyl-4-oxo-4H-pyrido[1,2-a]pyrimidine], the ED50 in test [1] is 2.9 mg/kg; in test [2], 2.5 mg/kg.
As to `CCCCn1nnc(-c2cnc3c(C)cccn3c2=O)n1` [3-(2-butyl-2H-tetrazol-5-yl)-9-methyl-4-oxo-4H-pyrido[1,2-a]pyrimidine], the ED50 in test [1] was found to be 2 mg/kg.
Take `CC(C)n1nnc(-c2cnc3ccccn3c2=O)n1` [3-(2-isopropyl-2H-tetrazol-5-yl)-4-oxo-4H-pyrido[1,2-a]pyrimidine]: the ED50 was 2.2 mg/kg in test [1] and 4 mg/kg in test [2].
For `Cc1cccn2c(=O)c(-c3nnn(C(C)C)n3)cnc12` [3-(2-isopropyl-2H-tetrazol-5-yl)-9-methyl-4-oxo-4H-pyrido[1,2-a]pyrimidine], in that order: 0.23 mg/kg and 2.6 mg/kg.
Turning to `CCCn1nnc(-c2cnc3c(C)cccn3c2=O)n1` [3-(2-propyl-2H-tetrazol-5-yl)-9-methyl-4-oxo-4H-pyrido[1,2-a]pyrimidine], the ED50 in test [1] is 0.05 mg/kg; in test [2] it was 5.5 mg/kg. In test [3] (determined on 3rd day following indomethacin), the “inhibition on the ulcer formation in the small intestine” value worked out at 20%. For the same compound, in test [3], the “inhibition on the lethality caused by indomethacin” value is on record as 100%.
In the case of `Cc1cccn2c(=O)c(-c3nn[nH]n3)cnc12` [9-methyl-3-(5-tetrazolyl)-4-oxo-4-H-pyrido[1,2-a]pyrimidine potassium salt], the “prevention of the gastrointestinal ulceration induced by indomethacin” value in test [4] is on record as “did not prevent”.
